Reference: ChEMBL document CHEMBL1201862, “PubChem BioAssay data set” (2004)
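Compound exposure: 48 hours, 5 concentrations, 96-well plates. GI50: concentration for 50% inhibition of growth.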 The source made the active and inactive calls. Cut-off read from the data, not from the text of the source: active = GI50 up to about 1.1 µM and inactive = higher.

Experiments:
Assay in all cases: inhibition of tumour cell growth, NCI panel, 48 h
786-0 = system: 786-0
A549 = system: A549
ACHN = system: ACHN
BT-549 = system: BT-549
CAKI-1 = system: CAKI-1
CCRF-CEM = system: CCRF-CEM
COLO 205 = system: COLO 205
DU-145 = system: DU-145
EKVX = system: EKVX
HCC 2998 = system: HCC 2998
HCT-116 = system: HCT-116
HCT-15 = system: HCT-15
HL-60 = system: HL-60
HOP-62 = system: HOP-62
HOP-92 = system: HOP-92
HT-29 = system: HT-29
IGROV-1 = system: IGROV-1
K562 = system: K562
KM12 = system: KM12
LOX IMVI = system: LOX IMVI
M14 = system: M14
MCF7 = system: MCF7
MDA-MB-231 = system: MDA-MB-231
MDA-MB-435 = system: MDA-MB-435
MDA-N = system: MDA-N
MOLT-4 = system: MOLT-4
Malme-3M = system: Malme-3M
NCI-H226 = system: NCI-H226
NCI-H23 = system: NCI-H23
NCI-H460 = system: NCI-H460
NCI-H522 = system: NCI-H522
NCI/ADR-RES = system: NCI/ADR-RES
OVCAR-3 = system: OVCAR-3
OVCAR-4 = system: OVCAR-4
OVCAR-5 = system: OVCAR-5
OVCAR-8 = system: OVCAR-8
PC-3 = system: PC-3
RPMI-8226 = system: RPMI-8226
SF-268 = system: SF-268
SF-295 = system: SF-295
SF-539 = system: SF-539
SK-MEL-2 = system: SK-MEL-2
SK-MEL-5 = system: SK-MEL-5
SK-OV-3 = system: SK-OV-3
SN12C = system: SN12C
SNB-19 = system: SNB-19
SNB-75 = system: SNB-75
SR = system: SR
SW-620 = system: SW-620
TK-10 = system: TK-10
U-251 = system: U-251
UACC-257 = system: UACC-257

Measured: GI50

CC(=O)O[C@H]1C(=O)[C@@]2(C)C(C(OC(=O)c3ccccc3)[C@]3(O)CC(OC(=O)C(O)C(NC(=O)c4cccc(Cl)c4)c4ccccc4)C(C)=C1C3(C)C)[C@]1(OC(C)=O)CO[C@@H]1C[C@@H]2O (some centres not stated)
inactive: ACHN 1.82 µM | BT-549 6.58 µM | CAKI-1 6.64 µM | EKVX > 10 µM | HOP-92 > 10 µM | MDA-MB-231 1.73 µM | Malme-3M 2.75 µM | NCI-H226 > 10 µM | NCI-H23 1.39 µM | NCI/ADR-RES 5.28 µM | OVCAR-4 3.96 µM | PC-3 1.53 µM | SF-295 1.15 µM | SK-OV-3 3.67 µM | SNB-19 2.79 µM | TK-10 2.51 µM | U-251 1.25 µM | UACC-257 2.09 µM
2.62 µM: HCT-15
active: 786-0 0.728 µM | A549 0.693 µM | CCRF-CEM 0.262 µM | COLO 205 0.385 µM | DU-145 0.546 µM | HCC 2998 0.0664 µM | HCT-116 0.16 µM | HL-60 0.148 µM | HOP-62 0.518 µM | HT-29 0.269 µM | IGROV-1 0.624 µM | K562 0.562 µM | KM12 0.507 µM | LOX IMVI 0.841 µM | M14 0.851 µM | MCF7 0.344 µM | MDA-MB-435 0.118 µM | MDA-N 0.0914 µM | MOLT-4 1.01 µM | NCI-H460 0.419 µM | NCI-H522 0.912 µM | OVCAR-3 0.449 µM | OVCAR-5 1.1 µM | OVCAR-8 0.653 µM | RPMI-8226 0.405 µM | SF-268 0.268 µM | SF-539 0.353 µM | SK-MEL-2 0.656 µM | SK-MEL-5 0.42 µM | SN12C 0.628 µM | SNB-75 1.1 µM | SR 0.218 µM | SW-620 0.838 µM
